Measured values taken from patent US20250325529A1, “INHIBITORS OF FATTY ACID BINDING PROTEINS (FABPs), METHODS OF USE AND METHODS OF MAKING” (Celloram, inc., priority 2024, published 2025).
“Also recorded” adds a separate entry of the source.

Columns and labels:
[1] = target: PPARδ (Homo sapiens (Human), UniProt Q03181); assay: Transcriptional activation assay in COS7 cells, PPARδ; type: cell-based; conditions: PPRE luciferase reporter, PD151 and PD152 at 10 μM
Experimental: (§1) COS-7 were cultured in 6-well plates and co-transfected with either a luciferase reporter driven by 3 copies of a PPRE and expression vector for either PPARδ, PPARα or PPARγ together with a vector harboring cDNA for β-galactosidase, serving as a transfection control. To test whether FABP4 or FABP5 mediate activation of their cognate receptors PPARγ and PPARδ, respectively, cells were also co-transfected with a plasmid harboring sequence of either FABP4 or FABP5. 18 h post-transfection, cells were placed in a serum-free medium and treated with agonist/compound. 18 h. later, cells were lysed, luciferase activity was assayed (Promega, WI, USA) and corrected for transfection efficiency by the activity of β-galactosidase.
(§2) Transcriptional activation assays were carried out utilizing COS7 cells as described above.

[2] = test system: OVCAR5 cells; assay: Proliferation assay (Incucyte confluency), OVCAR5; type: cell-based, human; conditions: 4 days
Experimental: (§3) COS-7, MDA-MB-231, and HepG2, were cultured in Dulbecco's modified Eagle's medium (DMEM) supplemented with 10% fetal bovine serum (Invitrogen Life Sciences, Carlsbad, CA). BT-549, OVCAR5 and OVCAR8 cells were cultured in L-Glutamine containing RPMI medium supplemented with 10% fetal calf serum (Invitrogen Life Sciences, Carlsbad, CA). The primary Human Mammary Epithelial Cells (HMEC) were cultured in mammary epithelial cell complete medium (basal medium plus rH-Insulin (5 μg/mL); L-Glutamine (6 mM); Epinephrine (1 μM); Apo-Transferrin (5 μg/mL); rH-TGF-α (0.5 ng/mL); ExtractP (0.4%); Hydrocortisone Hemisuccinate (100 ng/mL)).
(§4) 2000 cells were plated in each well of 96-well plate. The next day cells were treated with compounds and incubated in Incucyte for 4 days. Images taken every 4 hours for the duration of the time were analyzed to calculate percentage of confluency in response to the treatments. Growth inhibition was calculated as 1—(percentage of viable cells out of untreated cells).

[3] = target: FABP5 (Homo sapiens (Human), UniProt Q01469); assay: Fluorescence (ANS) competition binding assay, FABP5; conditions: ANS displacement
Experimental: (§5) This example illustrates a two-step fluorescence binding assay study used to determine the binding affinity of the various inhibitor compounds disclosed herein with the various FABPs: FABP3, FABP4, FABP5 and FABP7. Further secondary screening studies were carried out for compounds with high binding affinities toward the FABPs and based on their ability to activate the nuclear receptors PPARα, PPARγ, or PPARδ.
(§6) Binding assays for FABP3, FABP4, FABP5 and FABP7 were carried out by fluorescence titrations. His-tagged FABPs were bacterially expressed in E. coli, purified using Ni Sepharose beads, and the equilibrium dissociation constants (Kd) that characterize their interactions with different inhibitor compounds were measured by fluorescence competition assays. The method entails two steps as described in e.g., Lin, Q. et al., “Ligand selectivity of the peroxisome proliferator-activated receptor alpha,” Biochemistry 38, 185-190, doi:10.1021/bi9816094 [pii](1999). In the first step, Kd for the association of the protein with the fluorescent fatty acid probe ANS was measured. Protein (2 μM) was titrated with ANS from a concentrated solution in DMSO. Ligand binding was monitored by following the increase in the fluorescence of the ligand upon binding to the protein, and Kd for the association of ANS with the each FABP was computed from titration curves as described in e.g., Norris, A. W. & Li, E., “Fluorometric titration of the CRABPs,” Methods Mol Biol 89, 123-139 (1998)). In the second step, Kds for binding of non-fluorescent ligands were measured by monitoring their ability to displace ANS in the binding pocket of the protein. Each FABP was precomplexed with ANS at 1:1 molar ratio and titrated with the different compounds whose binding was reflected by a decrease in probe fluorescence. Kds were extracted from the EC50 of the competition curve and the measured Kd for ANS.

[4] = target: PPARα (Homo sapiens (Human), UniProt Q07869); assay: Transcriptional activation assay in COS7 cells, PPARα; type: cell-based; conditions: PPRE luciferase reporter, PD151 and PD152 at 10 μM
Experimental: as §1, §2

[5] = Single dose IV and PO PK study in C57BL/6 mice; type: in vivo; conditions: male C57BL/6 mice
Experimental: C57BL/6 male mice or Han Wistar rats were used, n=3 for each administration route and compound. Single dose of each compound was administered orally (PO, 10 mg/Kg) or by intravenous administration (IV, 1 mg/Kg). Following intravenous and oral administration, blood samples (ca 0.2 mL) were collected and compound amount was measured by HLPC. For IV group, blood samples were collected at 0.083, 0.25, 0.5, 1, 2, 4, 6, 8, and 24 hours post-dose. For PO group, blood samples were collected at 0.25, 0.5, 1, 2, 4, 6, 8, and 24 hours post-dose.

[6] = test system: MB-231 cells; assay: Proliferation assay (Incucyte confluency), MB-231; type: cell-based; conditions: Homo sapiens, 96 h, 4 days, read-out: IC50, inhibition of proliferation
Experimental: as §3, §4

[7] = target: FABP4 (Homo sapiens (Human), UniProt P15090); assay: Fluorescence (ANS) competition binding assay, FABP4; conditions: ANS displacement
Experimental: as §5, §6

[8] = target: PPARγ (Homo sapiens (Human), UniProt P37231); assay: Transcriptional activation assay in COS7 cells, PPARγ; type: cell-based; conditions: PPRE luciferase reporter, PD151 and PD152 at 10 μM
Experimental: as §1, §2

[9] = target: FABP3 (Homo sapiens (Human), UniProt P05413); assay: Fluorescence (ANS) competition binding assay, FABP3; conditions: ANS displacement
Experimental: as §5, §6

[10] = target: FABP7 (Homo sapiens (Human), UniProt O15540); assay: Fluorescence (ANS) competition binding assay, FABP7; conditions: ANS displacement
Experimental: as §5, §6

[11] = test system: BT-549 cells; assay: Proliferation assay (Incucyte confluency), BT-549; type: cell-based; conditions: Homo sapiens, 96 h, 4 days, read-out: IC50, inhibition of proliferation
Experimental: as §3, §4

[12] = test system: OVCAR8 cells; assay: Proliferation assay (Incucyte confluency), OVCAR8; type: cell-based; conditions: Homo sapiens, OVCAR-8, 96 h, 4 days, read-out: IC50, inhibition of OVCAR8 proliferation
Experimental: as §3, §4

[13] = mouse, plasma, intravenous 1 mg/kg

Chain of PPARα (Q07869 whole entry, species assumed): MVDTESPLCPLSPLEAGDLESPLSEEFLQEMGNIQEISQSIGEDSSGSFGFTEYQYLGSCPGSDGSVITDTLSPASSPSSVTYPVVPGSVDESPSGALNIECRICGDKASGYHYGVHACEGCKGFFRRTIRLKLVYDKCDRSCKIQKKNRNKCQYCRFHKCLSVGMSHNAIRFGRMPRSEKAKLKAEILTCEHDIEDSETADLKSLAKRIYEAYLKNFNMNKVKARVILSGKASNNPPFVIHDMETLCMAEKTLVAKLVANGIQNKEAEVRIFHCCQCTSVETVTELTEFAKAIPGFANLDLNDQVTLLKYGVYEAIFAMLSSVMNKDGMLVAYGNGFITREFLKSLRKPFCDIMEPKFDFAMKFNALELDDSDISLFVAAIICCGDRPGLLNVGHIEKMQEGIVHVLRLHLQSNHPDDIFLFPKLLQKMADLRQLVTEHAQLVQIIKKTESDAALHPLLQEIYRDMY
Chain of PPARδ (Q03181 whole entry, species assumed): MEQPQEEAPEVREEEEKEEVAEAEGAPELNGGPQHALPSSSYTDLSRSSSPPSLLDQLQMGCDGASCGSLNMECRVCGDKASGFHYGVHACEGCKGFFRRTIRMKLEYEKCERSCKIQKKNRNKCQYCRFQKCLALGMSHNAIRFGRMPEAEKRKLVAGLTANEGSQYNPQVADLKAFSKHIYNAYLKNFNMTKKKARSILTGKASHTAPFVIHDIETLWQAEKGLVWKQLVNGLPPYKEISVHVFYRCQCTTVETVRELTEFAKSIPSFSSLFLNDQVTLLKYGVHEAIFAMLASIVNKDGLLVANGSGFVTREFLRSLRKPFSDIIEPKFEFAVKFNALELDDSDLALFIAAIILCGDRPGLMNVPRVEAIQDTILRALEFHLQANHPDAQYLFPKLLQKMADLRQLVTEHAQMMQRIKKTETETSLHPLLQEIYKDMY
Chain of PPARγ (P37231 whole entry, species assumed): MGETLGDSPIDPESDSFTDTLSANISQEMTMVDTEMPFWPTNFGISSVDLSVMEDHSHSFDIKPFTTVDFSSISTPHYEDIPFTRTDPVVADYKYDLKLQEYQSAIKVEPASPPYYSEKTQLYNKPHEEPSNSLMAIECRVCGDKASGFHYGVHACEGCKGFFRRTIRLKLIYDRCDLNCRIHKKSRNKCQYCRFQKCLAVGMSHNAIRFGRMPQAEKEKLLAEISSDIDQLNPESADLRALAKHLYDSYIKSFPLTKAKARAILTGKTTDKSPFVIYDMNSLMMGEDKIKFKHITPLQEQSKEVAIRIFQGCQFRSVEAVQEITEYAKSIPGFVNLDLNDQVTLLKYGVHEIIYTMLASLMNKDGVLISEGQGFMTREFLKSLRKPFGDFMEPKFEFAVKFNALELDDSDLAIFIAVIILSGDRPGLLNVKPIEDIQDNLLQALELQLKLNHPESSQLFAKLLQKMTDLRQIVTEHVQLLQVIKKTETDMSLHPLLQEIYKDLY
Chain of FABP3 (P05413 whole entry, species assumed): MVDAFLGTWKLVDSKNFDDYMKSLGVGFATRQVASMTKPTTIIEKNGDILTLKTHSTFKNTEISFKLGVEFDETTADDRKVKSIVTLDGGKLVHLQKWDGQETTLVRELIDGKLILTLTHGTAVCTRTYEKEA
Chain of FABP5 (Q01469 whole entry, species assumed): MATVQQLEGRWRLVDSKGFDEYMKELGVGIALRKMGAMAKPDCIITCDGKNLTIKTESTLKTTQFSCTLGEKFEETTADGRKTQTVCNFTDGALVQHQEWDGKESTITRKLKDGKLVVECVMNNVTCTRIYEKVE
Chain of FABP7 (O15540 whole entry, species assumed): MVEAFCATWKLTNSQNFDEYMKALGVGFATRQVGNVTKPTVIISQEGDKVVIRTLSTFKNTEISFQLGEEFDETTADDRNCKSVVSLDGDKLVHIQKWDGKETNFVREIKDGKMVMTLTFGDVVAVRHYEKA
Chain of FABP4 (P15090 whole entry, species assumed): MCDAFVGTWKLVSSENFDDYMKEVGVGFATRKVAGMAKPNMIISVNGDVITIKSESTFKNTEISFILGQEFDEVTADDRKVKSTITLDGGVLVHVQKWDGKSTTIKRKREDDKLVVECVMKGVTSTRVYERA

- Kd [3]: 16 nM
- Thalf ([5]; oral 10 mg/kg): 4 h
- clearance [5, 13]: 5.3 mL/min/kg
- half-life [5, 13]: 3 to 4 h
- bioavailability ([5]; mouse, plasma, single oral dose 10 mg/kg): 95%
- Kd [7]: 18 nM
- Kd [9]: 250 nM
- Kd [10]: > 1000 nM
- IC50 [11]: 1010 nM
- IC50 [12]: 700 nM
Compound: CC(C)Oc1nc(NC(=O)CSCC(=O)O)c(Cl)cc1C(F)(F)F [PD151, 2-((2-((3-chloro-6-isopropoxy-5-(trifluoromethyl)pyridin-2-yl)amino)-2-oxoethyl)thio)acetic acid]
- Activation of transcription by PPARδ [1]: None of these tested compounds activated; also recorded: none of the tested compounds PD151 and PD152 activated transcription
- Inhibition of OVCAR5 proliferation [2]: inhibited proliferation of the two cell lines in a dose-dependent manner
- Activation of transcription by PPARα [4]: None of these tested compounds activated; also recorded: none of the tested compounds PD151 and PD152 activated transcription
- IC50 [6]: 727 nM
- Activation of transcription by PPARγ [8]: None of these tested compounds activated; also recorded: none of the tested compounds PD151 and PD152 activated transcription
